Literature values as cited in patent US20240358692A1, “TREATMENT OF SCLERODERMA” (Aisa Pharma, Inc., priority 2023, published 2024).

Details: oral dosing; cited from earlier work

## CCOC(=O)C1=C(COCCN)NC(C)=C(C(=O)OC)C1c1ccccc1Cl (stereo not shown) [amlodipine]
  time to achieve maximal plasma concentrations (Tmax): 10 h
